According to US10058586B2, “Use of human small leucine zipper protein in adipocyte differentiation procedure” (Korea University Research and Business Foundation, priority 2013, dated 2018):
d = 2'-deoxy (DNA)

Target: T1, PPARγ2 (Homo sapiens, UniProt P37231)
T1 sequence (P37231 1-505): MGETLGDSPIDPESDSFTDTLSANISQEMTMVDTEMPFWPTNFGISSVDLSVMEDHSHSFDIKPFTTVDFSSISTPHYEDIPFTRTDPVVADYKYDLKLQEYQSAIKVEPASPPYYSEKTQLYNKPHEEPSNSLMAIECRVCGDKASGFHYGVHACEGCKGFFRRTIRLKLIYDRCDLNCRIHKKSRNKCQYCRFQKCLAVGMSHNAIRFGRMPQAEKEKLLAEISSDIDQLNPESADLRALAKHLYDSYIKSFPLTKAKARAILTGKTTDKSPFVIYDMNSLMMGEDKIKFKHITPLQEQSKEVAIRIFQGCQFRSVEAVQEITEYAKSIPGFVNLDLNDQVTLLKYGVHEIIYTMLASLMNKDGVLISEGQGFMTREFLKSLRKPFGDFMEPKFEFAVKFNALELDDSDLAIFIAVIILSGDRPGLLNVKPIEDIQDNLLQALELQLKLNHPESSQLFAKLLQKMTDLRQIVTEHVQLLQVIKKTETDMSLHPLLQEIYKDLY
Assay: Luciferase reporter gene analysis (FABP4-Luc) of PPARγ2 transcriptional activity in 293T cells
Type: cell-based
Parameters: expressed in transfected cells; host or cells: 293T cells
Conditions: for sLZIP-mediated PPARγ2 transcriptional activity (luciferase): 293T cells expressing sLZIP, 100 nM si-RNAs, with or without 10 nM RZD
Protocol: C3H10T1/2 and 293T cells were plated in a 12-well culture dish at a density of 2×10^5 cells/well and incubated for 24 hours. Then, according to instructions of the manufacturer, the cells were transfected with a 0.2 μg of reporter genes and 0.1 to 0.5 μg of a laboratory plasmid using Lipofectamine 2000 or Genefectine. After 24 hours, the cells were cultured in a serum-free DMEM with or without 10 nM of rosiglitazone. siRNAs were prepared using sLZIP and HDAC target sequences (Table 1). For an RNA interference experiment, according to instructions of the manufacturer, the cells were transfected with scrambled control group RNA and appropriate siRNAs using Lipofectamine 2000. Human MSC and C3H10T/1/2 cells were infected with an adenovirus vector containing cDNA of human sLZIP or an empty vector. The infected medium was exchanged with a fresh medium after two hours.
Appropriately transfected cells were washed with cold PBS twice, and a reporter lysis buffer (Promega) was used and lysed in a culture dish. Luciferase analysis was performed using a luciferase analysis system (Promega Corporation, Madison, Wis.). A luciferase activity was recorded in Luminometer 20/20^n (Turner BioSystems, Sunnyvale, Calif.) according to instructions of the manufacturer. The luciferase activity was normalized to a β-galactosidase activity. For β-galactosidase analysis, CMV-β-galactosidase was transfected with luciferase reporter genes. All pieces of data were represented as mean±standard deviation of the results from at least three independent experiments.
In order to examine an effect of sLZIP on the transcriptional activity of PPARγ2, 293T cells were temporarily transfected with PPARγ2 (0.5 μg), β-galactosidase (0.1 μg), FABP4-Luc reporter genes (0.2 μg) and sLZIP at different contents (0.1 to 0.5 μg). After the transfection, the cells were stimulated with or without 10 nM of rosiglitazone (RZD) (FIG. 1A), pioglitazone (PZD) (FIG. 1B), and troglitazone (TZD) (FIG. 1C). A relative luciferase activity was analyzed with or without cell ligand treatment 24 hours after transfection. Also, the 293T cells were transiently transfected with si-sLZIP at different contents (50 and 100 nM), and the cells were treated or not treated with RZD (FIG. 1D). FABP4-Luc stable C3H10T1/2 cells were infected with a sLZIP-expressing adenovirus, and then differentiated into adipocytes for 4 days (FIG. 1E). A luciferase activity was normalized to a β-galactosidase activity and represented as a relative activity (fold change). All experiments were repeated three times, and bars in the graph represent mean±standard deviation. *, P<0.05; **, P<0.01
For this purpose, 293T cells were transiently transfected with PPARγ2 (0.5 μg), (3-galactosidase (0.1 μg), FABP4-Luc reporter genes (0.2 μg) and sLZIP (0.1 μg). After the transfection, the cells were stimulated with or without 10 nM of RZD and 10 nM of TSA (FIG. 4A). A promoter activity was measured according to luciferase analysis. In the 293T cells, FABP4-Luc reporter genes, sLZIP, PPAR, β-galactosidase, and 100 nM of si-RNAs and HDAC1, 2, 3 and 8 for a control group were expressed. After the transfection, the cells were stimulated with or without 10 nM of RZD, and a promoter activity was measured (FIG. 4B). 293T cells were temporarily transfected with FABP4-Luc reporter genes, PPARγ2, β-galactosidase, HDAC3 (0.5 μg) and sLZIP (0.1 μg). After the transfection, the cells were stimulated with or without 10 nM of RZD, and luciferase analysis was performed (FIG. 4C). A luciferase activity was normalized to a β-galactosidase activity and represented as a relative intensity (fold change). All experiments were repeated three times, and bars in the graph represent mean±standard deviation. GFP-sLZIP expression constructs were expressed in C3H10T1/2 cells, rabbit anti-HDAC3 antibodies and Texas Red-labeled anti-rabbit antibodies were used and analysis was performed under a fluorescence microscope. The nucleus was stained with DAPI (FIG. 4D). […]

Substance | transcriptional activity of PPARγ2 (relative luciferase activity) (293T cells, si-sLZIP 50 and 100 nM, treated or not treated with RZD) | sLZIP-mediated PPARγ2 transcriptional activity (luciferase)
si-sLZIP: siRNA for sLZIP, SEQ ID NO: 5 and 6 (+dTdT) (chain 1 GGACCCAGAUGACUCCACAGCAUAU; chain 2 AUAUGCUGUGGAGUCAUCUGGGUCC; RNA, 3' dTdT, backbone not given here) [reference compound] | increased the transcriptional activity of PPARγ2 | 
siRNA for HDAC1: siRNA with HDAC1 target sequence, SEQ ID NO: 7 and 8 (chain 1 CGACUGUUUGAGAACCUUA; chain 2 UAAGGUUCUCAAACAGUCGCU; RNA, 3' dTdT, backbone not given here) [reference compound] |  | not involved in sLZIP-mediated PPARγ2 regulation
siRNA for HDAC2: siRNA with HDAC2 target sequence, SEQ ID NO: 9 and 10 (chain 1 GGUCAAUAAGACCAGAUAA; chain 2 UUAUCUGGUCUUAUUGACCG; RNA, 3' dTdT, backbone not given here) [reference compound] |  | not involved in sLZIP-mediated PPARγ2 regulation
siRNA for HDAC3: siRNA with HDAC3 target sequence, SEQ ID NO: 11 and 12, used to knock down HDAC3 (chain 1 GCCGGUUAUCAACCAGGUA; chain 2 UACCUGGUUGAUAACCGGC; RNA, 3' dTdT, backbone not given here) [reference compound] |  | significantly increased
siRNA for HDAC8: siRNA with HDAC8 target sequence, SEQ ID NO: 13 and 14 (chain 1 CAUUCAGGAUGGCAUACAA; chain 2 UUGUAUGCCAUCCUGAAUGGG; RNA, 3' dTdT, backbone not given here) [reference compound] |  | not involved in sLZIP-mediated PPARγ2 regulation
